Test results published in patent US20130225483A1, “New Treatments of Hepatitis C Virus Infection” (priority 2010, published 2013).

Test system: HCV genotype 2 (GT2) and genotype 3 (GT3)
Experiment: Phase II clinical study: proportion of patients HCV RNA negative by LOQ
Format: in vivo
Conditions: monotherapy arm (600 mg BID 1 week, then 1000 mg QD), 25 IU/mL
Experimental: The efficacy of the therapy regimen may be monitored using standard protocols. Treatment may be followed by determinations of HCV in serum and measurement of serum ALT levels. For example, the patients may be assessed for the presence of HCV RNA in their plasma. HCV RNA (IU/mL) can be measured at regular intervals during the treatment, e.g., at Day 1 (pre-dose and 4, 8, and 12 hours post-dose) and pre-dose at Day 2, Day 3, Day 8, Day 15, Day 29, and at Week 12, Week 24, Week 36, Week 48, Week 72 (when applicable), and at follow up. In addition, the HCV strains in the patient can be sequenced and assessed for identification of mutations selecting for resistance.
As used herein, LOD means limit of detection (serum HCV RNA is less than 10 IU/mL) and LOQ means limit of quantification (serum HCV RNA is less than 25 IU/mL). HCV RNA levels can be measured using commercially available methods. […]

C/C=C/C[C@@H](C)[C@@H](O)[C@H]1C(=O)N[C@@H](CC)C(=O)N(C)[C@H](C)C(=O)N(CC)[C@@H](C(C)C)C(=O)N[C@@H](C(C)C)C(=O)N(C)[C@@H](CC(C)C)C(=O)N[C@@H](C)C(=O)N[C@H](C)C(=O)N(C)[C@@H](CC(C)C)C(=O)N(C)[C@@H](CC(C)C)C(=O)N(C)[C@@H](C(C)C)C(=O)N1C [alisporivir, Alisporivir]
patients achieved HCV RNA negative results (fraction in words): one third
